Assay results: ChEMBL document CHEMBL1144239, “Identification of novel protein kinase CK1 delta (CK1delta) inhibitors through structure-based virtual screening” (Bioorg Med Chem Lett, 2008)

Experiments:
[1] = Inhibition of CK1
[2] = Inhibition of CK2
[3] = target: Homeodomain-interacting protein kinase 2 (Homo sapiens, UniProt Q9H2X6); test: Inhibition of HIPK2
[4] = target: Casein kinase I isoform delta (Homo sapiens, UniProt P48730); test: Inhibition of CK1delta
[5] = target: Casein kinase I isoform gamma-1 (Homo sapiens, UniProt Q9HCP0); test: Inhibition of CK1gamma1
Sequence of Casein kinase I isoform gamma-1 (Q9HCP0 whole entry, canonical isoform): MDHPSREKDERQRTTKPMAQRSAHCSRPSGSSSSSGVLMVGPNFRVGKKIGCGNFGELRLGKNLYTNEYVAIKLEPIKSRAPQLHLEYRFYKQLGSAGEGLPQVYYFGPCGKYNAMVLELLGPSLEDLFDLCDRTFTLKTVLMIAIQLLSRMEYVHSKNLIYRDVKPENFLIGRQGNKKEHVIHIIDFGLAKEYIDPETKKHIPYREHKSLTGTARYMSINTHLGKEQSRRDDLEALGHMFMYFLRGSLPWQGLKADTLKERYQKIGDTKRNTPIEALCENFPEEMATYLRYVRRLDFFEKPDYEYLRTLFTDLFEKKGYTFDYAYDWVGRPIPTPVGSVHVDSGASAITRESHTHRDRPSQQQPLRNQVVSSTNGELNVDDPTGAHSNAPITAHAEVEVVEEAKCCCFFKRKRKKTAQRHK

[6] = Cytotoxicity against cisplatin-resistant human C13 cells after 48 hrs; type: functional, cell-based; conditions: C13, 48 h
[7] = target: Serine/threonine-protein kinase pim-1 (Homo sapiens, UniProt P11309); test: Inhibition of PIM1
[8] = target: Tyrosine-protein kinase Fgr (Homo sapiens, UniProt P09769); test: Inhibition of Fgr
Sequence of Tyrosine-protein kinase Fgr (P09769 whole entry): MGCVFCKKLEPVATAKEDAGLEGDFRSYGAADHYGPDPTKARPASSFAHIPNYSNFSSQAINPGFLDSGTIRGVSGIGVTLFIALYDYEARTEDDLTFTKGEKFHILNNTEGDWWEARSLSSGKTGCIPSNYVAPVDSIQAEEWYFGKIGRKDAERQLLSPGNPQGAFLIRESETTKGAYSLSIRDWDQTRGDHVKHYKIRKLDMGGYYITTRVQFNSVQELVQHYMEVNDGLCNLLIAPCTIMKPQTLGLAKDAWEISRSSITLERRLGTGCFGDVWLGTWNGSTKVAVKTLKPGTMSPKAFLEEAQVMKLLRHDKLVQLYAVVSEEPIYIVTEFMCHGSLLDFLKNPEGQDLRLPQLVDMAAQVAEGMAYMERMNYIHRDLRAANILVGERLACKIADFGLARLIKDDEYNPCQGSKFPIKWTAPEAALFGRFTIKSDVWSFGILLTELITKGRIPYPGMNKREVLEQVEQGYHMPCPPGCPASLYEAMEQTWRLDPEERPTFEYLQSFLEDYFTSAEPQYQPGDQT

[9] = Inhibition of PKA
[10] = target: Tyrosine-protein kinase Lyn (Homo sapiens, UniProt P07948); test: Inhibition of Lyn
Sequence of Tyrosine-protein kinase Lyn (P07948 whole entry): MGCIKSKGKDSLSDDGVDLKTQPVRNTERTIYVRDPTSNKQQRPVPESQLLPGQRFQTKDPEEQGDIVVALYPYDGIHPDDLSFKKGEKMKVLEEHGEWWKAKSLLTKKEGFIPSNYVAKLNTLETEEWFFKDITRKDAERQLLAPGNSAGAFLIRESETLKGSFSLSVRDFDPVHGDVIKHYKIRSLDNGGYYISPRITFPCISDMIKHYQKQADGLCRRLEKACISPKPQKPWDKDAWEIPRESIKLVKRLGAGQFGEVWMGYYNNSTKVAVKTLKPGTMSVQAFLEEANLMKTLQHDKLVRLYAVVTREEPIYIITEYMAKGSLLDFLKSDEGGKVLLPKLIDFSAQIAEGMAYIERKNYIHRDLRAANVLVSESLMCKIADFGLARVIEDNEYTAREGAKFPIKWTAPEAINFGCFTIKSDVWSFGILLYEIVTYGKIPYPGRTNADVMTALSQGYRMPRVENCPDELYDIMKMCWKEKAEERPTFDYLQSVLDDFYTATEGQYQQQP

[11] = target: Dual specificity tyrosine-phosphorylation-regulated kinase 1A (Homo sapiens, UniProt Q13627); test: Inhibition of DYRK1a
[12] = target: Tyrosine-protein kinase CSK (Homo sapiens, UniProt P41240); test: Inhibition of CSK
[13] = Cytotoxicity against human ovarian carcinoma cells after 48 hrs; type: functional, cell-based; conditions: Ovarian carcinoma cell
[14] = target: Tyrosine-protein kinase SYK (Homo sapiens, UniProt P43405); test: Inhibition of Syk
[15] = target: Casein kinase I isoform alpha (Homo sapiens, UniProt P48729); test: Inhibition of CK1alpha
Sequence of Casein kinase I isoform alpha (P48729 whole entry, canonical isoform): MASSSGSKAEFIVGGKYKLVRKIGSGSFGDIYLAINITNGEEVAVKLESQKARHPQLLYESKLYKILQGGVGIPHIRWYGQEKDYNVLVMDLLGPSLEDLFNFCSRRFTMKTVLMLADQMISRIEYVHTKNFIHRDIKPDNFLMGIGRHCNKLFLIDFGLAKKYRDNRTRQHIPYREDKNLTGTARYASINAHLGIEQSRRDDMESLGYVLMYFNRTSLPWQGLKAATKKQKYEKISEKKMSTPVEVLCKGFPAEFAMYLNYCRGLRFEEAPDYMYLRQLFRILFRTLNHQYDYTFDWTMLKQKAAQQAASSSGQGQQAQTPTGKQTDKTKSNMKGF

[16] = target: ALK tyrosine kinase receptor (Homo sapiens, UniProt Q9UM73); test: Inhibition of GST tagged ALK
Sequence of ALK tyrosine kinase receptor (Q9UM73 whole entry): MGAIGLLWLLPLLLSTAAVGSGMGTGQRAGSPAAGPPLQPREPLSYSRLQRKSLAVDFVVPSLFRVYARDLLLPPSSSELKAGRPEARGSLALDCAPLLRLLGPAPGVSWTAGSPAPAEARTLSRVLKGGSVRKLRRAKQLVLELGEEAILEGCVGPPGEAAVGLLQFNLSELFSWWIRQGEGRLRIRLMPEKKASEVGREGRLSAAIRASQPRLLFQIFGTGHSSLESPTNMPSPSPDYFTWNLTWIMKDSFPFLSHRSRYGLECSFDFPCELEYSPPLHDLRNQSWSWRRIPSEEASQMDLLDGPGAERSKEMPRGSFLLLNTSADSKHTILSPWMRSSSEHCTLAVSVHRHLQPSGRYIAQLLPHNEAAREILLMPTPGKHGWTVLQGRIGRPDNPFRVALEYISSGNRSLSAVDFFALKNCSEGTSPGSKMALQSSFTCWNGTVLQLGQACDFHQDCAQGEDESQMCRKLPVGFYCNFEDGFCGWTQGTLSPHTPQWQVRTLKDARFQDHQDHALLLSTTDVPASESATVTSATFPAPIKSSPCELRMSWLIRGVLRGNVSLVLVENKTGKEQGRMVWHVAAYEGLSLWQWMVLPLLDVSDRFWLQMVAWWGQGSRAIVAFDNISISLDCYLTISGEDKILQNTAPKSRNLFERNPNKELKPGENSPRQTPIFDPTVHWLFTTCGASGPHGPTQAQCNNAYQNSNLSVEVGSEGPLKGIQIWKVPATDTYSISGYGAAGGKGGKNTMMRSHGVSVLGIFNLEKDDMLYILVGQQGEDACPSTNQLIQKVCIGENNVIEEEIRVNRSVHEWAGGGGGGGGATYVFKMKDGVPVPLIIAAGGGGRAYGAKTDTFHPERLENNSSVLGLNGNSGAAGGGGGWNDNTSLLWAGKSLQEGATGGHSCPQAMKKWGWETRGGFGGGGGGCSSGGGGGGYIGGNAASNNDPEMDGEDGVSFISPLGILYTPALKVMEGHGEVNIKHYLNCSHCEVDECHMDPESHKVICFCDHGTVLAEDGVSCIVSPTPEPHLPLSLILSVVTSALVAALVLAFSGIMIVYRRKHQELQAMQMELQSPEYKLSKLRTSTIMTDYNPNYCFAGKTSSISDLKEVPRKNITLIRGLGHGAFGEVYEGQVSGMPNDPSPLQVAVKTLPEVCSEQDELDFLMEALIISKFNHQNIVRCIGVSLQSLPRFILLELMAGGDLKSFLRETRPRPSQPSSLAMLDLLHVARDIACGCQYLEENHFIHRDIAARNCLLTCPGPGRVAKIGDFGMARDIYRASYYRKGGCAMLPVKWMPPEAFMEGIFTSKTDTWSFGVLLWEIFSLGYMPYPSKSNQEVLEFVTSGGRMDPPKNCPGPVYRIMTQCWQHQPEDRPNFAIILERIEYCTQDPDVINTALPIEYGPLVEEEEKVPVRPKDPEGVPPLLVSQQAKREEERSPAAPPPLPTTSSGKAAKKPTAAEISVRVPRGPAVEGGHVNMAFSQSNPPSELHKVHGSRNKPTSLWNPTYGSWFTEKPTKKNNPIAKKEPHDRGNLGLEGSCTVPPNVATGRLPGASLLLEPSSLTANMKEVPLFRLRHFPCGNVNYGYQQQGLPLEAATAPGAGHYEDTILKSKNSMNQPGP

Sequence of Casein kinase I isoform delta (P48730 whole entry, canonical isoform): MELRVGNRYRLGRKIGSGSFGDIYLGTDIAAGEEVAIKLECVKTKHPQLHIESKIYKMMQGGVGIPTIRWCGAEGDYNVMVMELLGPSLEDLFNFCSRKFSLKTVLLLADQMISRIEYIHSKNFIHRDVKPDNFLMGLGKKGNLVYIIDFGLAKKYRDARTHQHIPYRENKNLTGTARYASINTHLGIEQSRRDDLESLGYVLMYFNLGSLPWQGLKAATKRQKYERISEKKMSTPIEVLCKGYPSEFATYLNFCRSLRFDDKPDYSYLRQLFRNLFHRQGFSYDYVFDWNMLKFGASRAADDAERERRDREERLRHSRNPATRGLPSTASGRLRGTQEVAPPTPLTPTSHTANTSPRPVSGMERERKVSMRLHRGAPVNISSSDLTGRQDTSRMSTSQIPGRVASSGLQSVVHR
Sequence of Homeodomain-interacting protein kinase 2 (Q9H2X6 whole entry, canonical isoform): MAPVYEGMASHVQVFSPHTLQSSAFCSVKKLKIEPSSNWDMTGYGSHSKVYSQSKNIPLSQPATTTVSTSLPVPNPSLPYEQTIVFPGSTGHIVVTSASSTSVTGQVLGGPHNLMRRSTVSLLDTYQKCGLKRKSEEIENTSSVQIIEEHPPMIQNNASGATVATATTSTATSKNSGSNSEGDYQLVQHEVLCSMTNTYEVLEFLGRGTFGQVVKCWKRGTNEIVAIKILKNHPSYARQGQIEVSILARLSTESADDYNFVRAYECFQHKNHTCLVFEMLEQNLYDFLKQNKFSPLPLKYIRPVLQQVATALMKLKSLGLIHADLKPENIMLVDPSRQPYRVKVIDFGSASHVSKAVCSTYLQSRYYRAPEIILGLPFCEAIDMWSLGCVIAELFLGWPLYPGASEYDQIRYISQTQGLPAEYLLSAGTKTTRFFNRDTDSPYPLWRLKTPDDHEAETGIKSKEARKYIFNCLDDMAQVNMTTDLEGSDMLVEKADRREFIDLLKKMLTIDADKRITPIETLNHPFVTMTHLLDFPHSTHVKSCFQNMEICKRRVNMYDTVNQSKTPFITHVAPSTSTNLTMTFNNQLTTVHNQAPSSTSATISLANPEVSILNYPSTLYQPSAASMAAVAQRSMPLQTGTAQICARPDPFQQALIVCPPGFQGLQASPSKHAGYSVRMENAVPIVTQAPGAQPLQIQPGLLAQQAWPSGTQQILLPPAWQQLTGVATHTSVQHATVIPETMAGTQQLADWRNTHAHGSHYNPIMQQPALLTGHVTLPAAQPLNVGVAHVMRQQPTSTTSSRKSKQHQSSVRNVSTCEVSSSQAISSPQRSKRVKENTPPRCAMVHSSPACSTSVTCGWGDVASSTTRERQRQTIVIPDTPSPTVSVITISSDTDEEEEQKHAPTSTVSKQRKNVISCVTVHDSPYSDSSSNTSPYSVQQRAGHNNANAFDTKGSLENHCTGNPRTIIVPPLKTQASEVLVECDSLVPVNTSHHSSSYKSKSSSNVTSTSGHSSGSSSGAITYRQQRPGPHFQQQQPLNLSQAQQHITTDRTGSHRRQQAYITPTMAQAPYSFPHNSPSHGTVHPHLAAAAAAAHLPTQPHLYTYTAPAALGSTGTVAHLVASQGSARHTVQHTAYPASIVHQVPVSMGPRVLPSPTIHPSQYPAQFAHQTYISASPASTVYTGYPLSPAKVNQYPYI

Compound | IC50 [1] [µM] | IC50 [4] [µM] | IC50 [5] [µM] | IC50 [6] [µM] | IC50 [13] [µM] | IC50 [15] [µM] | other results
Nc1ccc(N)c2c1C(=O)c1ccccc1C2=O |  | 0.33 | 34 | 87.9 | 14.4 | 4 | IC50 [2]: 18 µM; IC50 [3]: 3.3 µM; IC50 [7]: 24.7 µM; IC50 [8]: 24 µM; IC50 [9]: > 40 µM; IC50 [10]: > 40 µM; IC50 [11]: 3.6 µM; IC50 [12]: > 40 µM; IC50 [14]: > 40 µM; IC50 [16]: > 40 µM
Nc1ccc(O)c2c1C(=O)c1ccccc1C2=O |  | 0.66 | 26.2 | 8 | 122 | 4 | 
COc1cc(OC)c(C=C2C(=O)Nc3ccccc32)c(OC)c1 [IC261] | 1 | 2.57 | > 40 |  |  | 1.24 | 
O=C1c2ccccc2C(=O)c2c(O)ccc(O)c21 [QUINIZARIN] |  | > 40 | > 40 |  |  | > 40 | 

Continued, in another order:

IC50 [1] [µM] | Compound | IC50 [4] [µM] | IC50 [5] [µM] | IC50 [6] [µM] | IC50 [13] [µM] | IC50 [15] [µM] | other results
0.3 | NC(=O)c1ccc(-c2nc(-c3ccc4c(c3)OCCO4)c(-c3ccccn3)[nH]2)cc1 |  |  |  |  |  | 
6 | NCCNS(=O)(=O)c1ccc(Cl)c2ccncc12 |  |  |  |  |  | 
